Measured values taken from US5948782A, “Pharmaceutical composition containing quinoline and quinazoline derivatives and novel compounds therefor” (Takeda Chemical, priority 1992, dated 1999).

Tests used:
Rat Adjuvant Arthritis = assay: Effects on Rat Adjuvant Arthritis; assay type: in vivo; settings: 336 h, Lewis rats, 50 mg/kg once a day for 14 days; for change in vivo at 50 mg/kg: based on drug-unadministered rats, read-out: Increase rate of body weight (%); for inhibition in vivo at 50 mg/kg: left hind leg, 14th day, read-out: Swelling inhibitory rate (%)
[1] = system: Rat Carrageenin Paw Edema; assay: Rat Carrageenin Paw Edema Inhibitory Activity; assay type: in vivo; settings: Jcl:SD rats, 50 mg/kg orally, 3 hours after carrageenin
Protocol: Rat Carrageenin Paw Edema Inhibitory Activity
The volume of a planter part of a right hind leg of Jcl:SD rats (male, 6 weeks old) was measured, and then suspension of a test drug (50 mg/kg) in 5% acacia was administered orally. Then water was administered additionally so that the total amount of administered liquid became 5 ml/rat. After 1 hour, a suspension (0.05 ml) containing 1% carrageenin in physiological saline was injected intradermally into the plantar to induce swelling [Winter, C. A. et al; Proc. Soc. Exp. Biol. Med., 111, 544 (1962)]. The volume of the right hind leg was measured again 3 hours after the carrageenin injection, and swelling inhibitory rate was calculated from the difference in the volumes before and after the injection.

[2] = system: mouse phenylquinone writhing; assay: Analgesic Activity in Mice (phenylquinone writhing model); assay type: in vivo; settings: Slc:ICR mice, 50 mg/kg orally, 20 minutes
Protocol: Analgesic Activity in Mice
A drug (50 mg/kg) suspended in 5% acacia was administered orally to Slc:ICR mice (male, 4 weeks old). After 30 minutes, a 0.02% phenylquinone solution (0.1 ml/[…]) in 5% ethanol was administered intraperitoneally. Writhing and stretching reactions for 20 minutes after the injection were calculated for each mouse to evaluate analgesic activity of the test drug [Siegmund, E. et al.; Proc. Soc. Exp. Biol. Med., 95, 729 (1957)].

IL-1β = assay: Anti-IL-1 activity (extracellular substrates of rat cartilage cells); assay type: cell-based; settings: 72 h, IL-1β 0.2 ng/ml, 3 days, read-out: IL-1 inhibitory activity (%)
Protocol: Rat cartilage cells were prepared according to the known method [Fujio Suzuki et al., Sin Seikagaku Jikken Kohza, 18, p.871-875 (1990)] and cultivated in Dulbecco's Medium containing 10% fetal bovine serum. After 8 days, various concentrations of a test drug and IL-1β (0.2 ng/ml) were added, and the cells were cultivated for additional 3 days. The amount of extracellular substrates thus produced was determined.
Although IL-1β inhibits the synthesis of extracellular substrates of cartilage cells, addition of the drug inhibits the IL-1 activity and the amount of extracellular substrates synthesized was recovered.

mice = assay: Oral toxicity in mice; assay type: in vivo; settings: 300 mg/kg administered orally to mice
Protocol: The compounds of the present invention have low toxicity. For example, when 300 mg/kg of the compounds prepared in Examples 36, 45, 47, 54 and 64 were administered orally to mice, no mice died. Therefore, the compounds of the present invention are useful as an anti-inflammatory agent, particularly an agent for treating arthritis producing inflammatory symptoms, in humans and other mammals.

[3] = system: Antigen-responsive T cell; assay: Antigen-Responsive T Cell Growth Inhibitory Activity (PPD-stimulated 3H-Tdr incorporation); assay type: cell-based, Lewis rats; settings: PPD 2 μg/ml, Lewis rat T cells, read-out: Antigen-responsive T cell growth inhibitory rate (%)
Protocol: Antigen-Responsive T Cell Growth Inhibitory Activity
According to the method of Test Example 1, adjuvant arthritis was induced in Lewis rats (male, 7 weeks old). After 14 days, lymphonodi inguinales were excised. Then, a single-cell suspension was prepared by using RPMI-1640 medium containing 5% fetal bovine serum and then incubated at 37° C. for 1 hour in a nylon wool column. The cells were eluted from the column with the same medium. The non-adsorptive cell-fraction was used as T cells.
On the other hand, spleen cells were taken out from unsensitized Lewis rats (male, 8 to 9 weeks old) and irradiated with soft X-rays (20,000 R). To the spleen cells (1×10^5 cells/well) were added the above T cells (5×10^5 cells/well), PPD (Purified Protein Derivatives; final concentration: 2 μg/ml) and 2% Lewis rat serum (treated at 56° C. for 30 minutes). The mixture was incubated at 37° C. for 72 hours in a 5% carbonic acid incubator. Further, ^3 H-Tdr (0.5 μCi/well) was added followed by incubation for 24 hours. The cells were recovered, and the radioactivity of ^3 H-Tdr incorporated into the cells was determined. The test drug was added to the cell suspension just before the addition of PPD, and effects on incorporation of ^3 H-Tdr into the cells were observed.

Compound	change in vivo at 50 mg/kg (Rat Adjuvant Arthritis) [%]	inhibition in vivo at 50 mg/kg (Rat Adjuvant Arthritis) [%]	inhibition at 1 µM [3] [%]	inhibition at 10 µM [3] [%]	also measured
CCOC(=O)c1c(C[S+]([O-])c2nccn2C)nc2cc(OC)c(OC)cc2c1-c1ccc(OC)c(OC)c1 (stereo not drawn) [Example 2, ethyl 6,7-dimethoxy-4-(3,4-dimethoxyphenyl)-2-[(1-methylimidazol-2-yl)sulfinylmethyl]quinoline-3-carboxylate]	39	73	–	–	–
CCOC(=O)c1c(C[S+]([O-])c2nc3ccccc3[nH]2)nc2cc(OC)c(OC)cc2c1-c1ccc(OC)c(OC)c1 (stereo not drawn) [Example 3, ethyl 2-[(2-benzimidazolyl)sulfinylmethyl]-6,7-dimethoxy-4-(3,4-dimethoxyphenyl)quinoline-3-carboxylate]	–	–	–	–	Swelling inhibitory rate (%) [1]: 23%
CCOC(=O)c1c(CSc2nc3ccccc3[nH]2)nc2cc(OC)c(OC)cc2c1-c1ccc(OC)cc1 [Example 27, ethyl 6,7-dimethoxy-4-(4-methoxyphenyl)-2-[(benzimidazol-2-yl)thiomethyl]quinoline-3-carboxylate]	–	–	–	–	Inhibitory rate (%) [2]: 39%
CCOC(=O)c1c(CSc2nccn2C)nc2cc(OC)c(OC)cc2c1-c1ccc(OC)cc1 [Example 28, ethyl 6,7-dimethoxy-4-(4-methoxyphenyl)-2-[(1-methylimidazol-2-yl)thiomethyl]quinoline-3-carboxylate]	–	–	–	–	Inhibitory rate (%) [2]: 43%; inhibition at 1 µM (IL-1β): 34%; inhibition at 10 µM (IL-1β): 44%
CCOC(=O)c1c(CSc2nccn2C)nc2cc(OC)c(OC)cc2c1-c1ccc(C)cc1 [Example 33, ethyl 6,7-dimethoxy-4-(4-methylphenyl)-2-[(1-methylimidazol-2-yl)thiomethyl]quinoline-3-carboxylate]	12	67	–	–	–
CCOC(=O)c1c(CSc2nncn2C)nc2cc(OC)c(OC)cc2c1-c1ccc(OC)c(OC)c1 [Example 35, ethyl 6,7-dimethoxy-4-(3,4-dimethoxyphenyl)-2-[(4-methyl-1,2,4-triazol-3-yl)thiomethyl]quinoline-3-carboxylate]	11	64	–	–	–
CCOC(=O)c1c(CSc2nccn2C)nc2cc(OC)c(OC)cc2c1-c1ccc(OC)c(OC)c1 [Example 36, ethyl 6,7-dimethoxy-4-(3,4-dimethoxyphenyl)-2-[(1-methylimidazol-2-yl)thiomethyl]quinoline-3-carboxylate]	30	48	33	79	mortality (mice): no mice died; Inhibitory rate (%) [2]: 59%; inhibition at 1 µM (IL-1β): 22%; inhibition at 10 µM (IL-1β): 48%
CCOC(=O)c1c(CSCc2ccc(Cl)cc2)nc2cc(OC)c(OC)cc2c1-c1ccc(OC)c(OC)c1 [Example 41, ethyl 6,7-dimethoxy-4-(3,4-dimethoxyphenyl)-2-[(4-chlorophenyl)methylthiomethyl]quinoline-3-carboxylate]	–	–	–	–	inhibition at 1 µM (IL-1β): 17%; inhibition at 10 µM (IL-1β): 50%
CCOC(=O)c1c(CSc2ccc(Cl)cc2)nc2cc(OC)c(OC)cc2c1-c1ccc(OC)c(OC)c1 [Example 42, ethyl 6,7-dimethoxy-4-(3,4-dimethoxyphenyl)-2-[(4-chlorophenyl)thiomethyl]quinoline-3-carboxylate]	–	–	–	–	Inhibitory rate (%) [2]: 47%
CCOC(=O)c1c(CSc2nccc(=O)[nH]2)nc2cc(OC)c(OC)cc2c1-c1ccc(OC)c(OC)c1 [Example 45, ethyl 6,7-dimethoxy-4-(3,4-dimethoxyphenyl)-2-[(6(1H)-pyrimidon-2-yl)thiomethyl]quinoline-3-carboxylate]	–	–	36	70	mortality (mice): no mice died
CCOC(=O)c1c(CSc2ncccc2O)nc2cc(OC)c(OC)cc2c1-c1ccc(OC)c(OC)c1 [Example 46, ethyl 6,7-dimethoxy-4-(3,4-dimethoxyphenyl)-2-[(3-hydroxypyridin-2-yl)thiomethyl]quinoline-3-carboxylate]	–	–	39	92	–
CCOC(=O)c1c(CSC2=NCCS2)nc2cc(OC)c(OC)cc2c1-c1ccc(OC)c(OC)c1 [Example 47, ethyl 6,7-dimethoxy-4-(3,4-dimethoxyphenyl)-2-[(2-thiazolin-2-yl)thiomethyl]quinoline-3-carboxylate]	–	–	61	93	mortality (mice): no mice died
CCOC(=O)c1c(CSc2nc3ccccc3[nH]2)nc2cc(OC)c(OC)cc2c1-c1ccc(OC)c(OC)c1 [Example 53, ethyl 6,7-dimethoxy-4-(3,4-dimethoxyphenyl)-2-[(benzimidazol-2-yl)thiomethyl]quinoline-3-carboxylate]	–	–	51	91	inhibition at 1 µM (IL-1β): 39%; inhibition at 10 µM (IL-1β): 71%
CCOC(=O)c1c(CSc2nc3ccc(F)cc3[nH]2)nc2cc(OC)c(OC)cc2c1-c1ccc(OC)c(OC)c1 [Example 54, ethyl 6,7-dimethoxy-4-(3,4-dimethoxyphenyl)-2-[(5-fluorobenzimidazol-2-yl)thiomethyl]quinoline-3-carboxylate]	–	–	–	–	mortality (mice): no mice died; Swelling inhibitory rate (%) [1]: 21%
CCOC(=O)c1c(CSc2nc3ccccc3s2)nc2cc(OC)c(OC)cc2c1-c1ccc(OC)c(OC)c1 [Example 60, ethyl 6,7-dimethoxy-4-(3,4-dimethoxyphenyl)-2-[(benzothiazol-2-yl)thiomethyl]quinoline-3-carboxylate]	–	–	59	91	Swelling inhibitory rate (%) [1]: 31%
CCOC(=O)c1c(CSc2nnc3ccccn23)nc2cc(OC)c(OC)cc2c1-c1ccc(OC)c(OC)c1 [Example 66, ethyl 6,7-dimethoxy-4-(3,4-dimethoxyphenyl)-2-[(pyrido[1,2-a][1,3,4]triazol-5-yl)thiomethyl]quinoline-3-carboxylate]	–	–	–	–	Inhibitory rate (%) [2]: 58%
CCOC(=O)c1c(CSc2nccn2C)nc2cc(OC)c(OC)cc2c1-c1ccc2c(c1)OCO2 [Example 69, ethyl 6,7-dimethoxy-4-(3,4-methylenedioxyphenyl)-2-[(1-methylimidazol-2-yl)thiomethyl]quinoline-3-carboxylate]	17	63	–	–	–
CCOC(=O)c1c(CSc2nccn2C)nc2cc(OCC)c(OCC)cc2c1-c1ccc(OC)c(OC)c1 [Example 72, ethyl 6,7-diethoxy-4-(3,4-dimethoxyphenyl)-2-[(1-methylimidazol-2-yl)thiomethyl]quinoline-3-carboxylate]	27	50	–	–	–
CCOC(=O)c1c(CCc2nccn2C)nc2cc(OC)c(OC)cc2c1-c1ccc(OC)c(OC)c1 [Example 87, ethyl 6,7-dimethoxy-4-(3,4-dimethoxyphenyl)-2-[2-(1-methylimidazol-2-yl)ethyl]quinoline-3-carboxylate]	27	75	–	–	–
COc1ccc(-c2nc(CCc3nccn3C)nc3cc(OC)c(OC)cc23)cc1OC [Example 88, 6,7-dimethoxy-4-(3,4-dimethoxyphenyl)-2-[2-(1-methylimidazol-2-yl)ethyl]quinazoline]	24	62	–	–	–
